# According to patent publication US11753445B2, “Therapeutic peptides” (COHBAR, INC., priority 2016, dated 2023):
# Assays:
# 3T3-L1 Adipocytes [1] = assay: Free fatty acid levels in cultured mouse 3T3-L1 adipocytes, isoproterenol stimulated (Example 2); assay type: cell-based; details: test peptides 25 μM; isoproterenol 1 nM
# How it was run: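 3T3-L1 cells differentiated 12–17 days into adipocytes, then exposed to test peptides at 25 μM final for 18–20 h, then 1 h, then 3 h with isoproterenol (1 nM) at 37 °C. Free fatty acids in the medium measured colorimetrically at 540 nm, corrected for untreated background and expressed relative to isoproterenol-only cells.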
# Human Primary Adipocytes = assay: Free fatty acid levels in cultured human primary adipocytes, forskolin stimulated (Example 5); assay type: cell-based; details: test peptides 25 μM; forskolin 1 μM
# Experimental: Human primary adipocytes were seeded at 5,000-100,000 cells per well on 96-well, 48-well, or 24-well plate in Pre-adipocyte Medium (Zen-Bio, Durham, N.C.) and grown to confluence at 37° C. in a humidified atmosphere of 5% CO2/95% air. Two days after confluence, cells were placed in Adipocyte Differentiation Medium (Zen-Bio, Durham, N.C.) and cultured for three additional days at 37° C. in a humidified atmosphere of 5% CO2/95% air. The culture media was then replaced with Adipocyte Maintenance Medium (Zen-Bio) and the cells were maintained for an additional 11-21 days at 37° C. in a humidified atmosphere of 5% CO2/95% air with partial medium replacement every other day. Following 14-24 days of differentiation, test peptides were added at a final concentration of 25 μM and incubated for 18-20 hours in Adipocyte Maintenance Medium at 37° C. in a humidified atmosphere of 5% CO2/95%. After 18-20 hours, the media was exchanged with fresh Adipocyte Maintenance Medium containing test peptides and incubated for 1 h at 37° C. in a humidified atmosphere of 5% CO2/95%. After 1 h media was exchanged with Assay Buffer (Zen-Bio) containing forskolin (1 μM) (added to all samples except untreated controls) and test peptides. Cells were incubated for a further 3 hours at 37° C. in a humidified atmosphere of 5% CO2/95%. Free fatty acid concentrations in the media were determined using a Free Fatty Acid Assay Kit (Zen-Bio) according to the manufacturer's instructions using a plate reader (540 nm). Absorbance values were corrected for untreated background and expressed relative to forskolin treated cells. Treatment with forskolin (1 μM) alone was used as the free fatty acid level stimulatory control. The relative standard deviation of the forskolin control was <20%. […] Free fatty acid levels for insulin (100 nM) treatment were <8% of the forskolin control value.
# 3T3-L1 Adipocytes [2] = assay: Free fatty acid levels in cultured mouse 3T3-L1 adipocytes, forskolin stimulated (Example 3); assay type: cell-based; details: test peptides 25 μM; forskolin 1 μM
# Experimental: Mouse 3T3-L1 cells were seeded at 1,000-20,000 cells per well on 96-well, 48-well, or 24-well plates in Pre-adipocyte Medium (Zen-Bio, Durham, N.C.) and grown to confluence at 37° C. in a humidified atmosphere of 5% CO2/95% air. Two days after confluence, cells were placed in Adipocyte Differentiation Medium (Zen-Bio, Durham, N.C.) and cultured for three additional days at 37° C. in a humidified atmosphere of 5% CO2/95% air. The culture media was then replaced with Adipocyte Maintenance Medium (Zen-Bio) and the cells were maintained for an additional 9-14 days at 37° C. in a humidified atmosphere of 5% CO2/95% air with partial medium replacement every other day. Following 12-17 days of differentiation, test peptides were added at a final concentration of 25 μM and incubated for 18-20 hours in Adipocyte Maintenance Medium at 37° C. in a humidified atmosphere of 5% CO2/95%. After 18-20 hours, the media was exchanged with fresh Adipocyte Maintenance Medium containing test peptides and incubated for 1 h at 37° C. in a humidified atmosphere of 5% CO2/95%. After 1 h media was exchanged with Assay Buffer (Zen-Bio) containing forskolin (1 μM) (added to all samples except untreated controls) and test peptides. Cells were incubated for a further 3 hours at 37° C. in a humidified atmosphere of 5% CO2/95%. Free fatty acid concentrations in the media were determined using a Free Fatty Acid Assay Kit (Zen-Bio) according to the manufacturer's instructions using a plate reader (540 nm). Absorbance values were corrected for untreated background and expressed relative to forskolin treated cells. Treatment with forskolin (1 μM) alone was used as the free fatty acid level stimulatory control. The relative standard deviation of the forskolin control was <10%. […] Free fatty acid levels for insulin (100 nM) treatment were <9% of the forskolin control value.
# [3] = system: Diet Induced Obese (DIO) mice; assay: Body weight, blood glucose and fat mass in Diet Induced Obese mice, 10 days (Example 6); assay type: in vivo, Male C57BL/6 mice; details: male DIO mice; 10 days twice daily intraperitoneal 15 mg/kg; N = 8; mean
# Experimental: Animals were randomized to treatment groups based on blood glucose levels and body weight. The peptides of the invention were administered to two groups of male DIG mice once or twice daily by subcutaneous or intraperitoneal injection at a dose of 15 mg/kg/dose for 10 days (N=8 animals per treatment group). An additional group of male DIG mice (n=8) received vehicle (water or saline) alone. Body weight, blood glucose levels and food intake were monitored. Body mass distribution (fat vs lean) was determined by quantitative whole body NMR prior to dosing and at the end of dosing.
# [4] = Stability in mouse plasma, peptides 100 uM (Example 14); assay type: in vitro ADME; details: mouse plasma 37° C., peptide 100 uM; for remaining at 0.25 h, 100 uM / remaining at 0.5 h, 100 uM / remaining at 1 h, 100 uM / remaining at 2 h, 100 uM / remaining at 3 h, 100 uM: pooled mouse plasma; for remaining at 0.25 h, 100 uM: 15 min, read-out: % Remaining at Each Time Point: 15 min; for remaining at 0.5 h, 100 uM: 30 min, read-out: % Remaining at Each Time Point: 30 min; for remaining at 1 h, 100 uM: 60 min, read-out: % Remaining at Each Time Point: 60 min; for remaining at 2 h, 100 uM: 120 min, read-out: % Remaining at Each Time Point: 120 min; for remaining at 3 h, 100 uM: 180 min, read-out: % Remaining at Each Time Point: 180 min
# Experimental: Peptides (100 uM) were incubated in pooled mouse plasma at 37° C. and samples were removed and immediately analyzed for the concentration of intact peptide by LC/MS/MS over the course of 3 hours. The percent of peptide remaining in plasma at each time point was calculated relative to the initial peak area (Table 12).
substance,measurement,setting,value
H-RWQEMGYIFYPR-OH [compound 205],Free Fatty Acid Levels in 3T3-L1 Adipocytes Expressed as a Percent of Isoproterenol Control: Percent of Control Value,3T3-L1 Adipocytes [1],71.5%
same,Free Fatty Acid Levels in Human Primary Adipocytes Expressed as a Percent of Forskolin Control: Percent of Control Value,Human Primary Adipocytes,94.5%
same,Free Fatty Acid Levels in 3T3-L1 Adipocytes Expressed as a Percent of Forskolin Control: Percent of Control Value,3T3-L1 Adipocytes [2],64.5%
H-RWQEMGYIFYPRALR-OH [compound 215],Free Fatty Acid Levels in 3T3-L1 Adipocytes Expressed as a Percent of Isoproterenol Control: Percent of Control Value,3T3-L1 Adipocytes [1],27.2%
same,Free Fatty Acid Levels in Human Primary Adipocytes Expressed as a Percent of Forskolin Control: Percent of Control Value,Human Primary Adipocytes,102%
same,Free Fatty Acid Levels in 3T3-L1 Adipocytes Expressed as a Percent of Forskolin Control: Percent of Control Value,3T3-L1 Adipocytes [2],37.4%
same,Difference from Vehicle Control: Decrease from Baseline in Blood Glucose,[3],16.4 mg/dL
same,Difference from Vehicle Control: Decrease from Baseline in Body Weight (%),[3],2.31%
same,Difference from Vehicle Control: Decrease from Baseline in Fat Mass,[3],0.67 g
same,% Remaining at Each Time Point: 0 min,[4],100%
same,"remaining at 0.25 h, 100 uM",[4],71.2%
same,"remaining at 0.5 h, 100 uM",[4],37.1%
same,"remaining at 1 h, 100 uM",[4],42.1%
same,"remaining at 2 h, 100 uM",[4],15.4%
same,"remaining at 3 h, 100 uM",[4],6.98%
H-MRWQEMGYIFYPRQLR-OH [compound 214],Free Fatty Acid Levels in 3T3-L1 Adipocytes Expressed as a Percent of Isoproterenol Control: Percent of Control Value,3T3-L1 Adipocytes [1],52.3%
same,Free Fatty Acid Levels in Human Primary Adipocytes Expressed as a Percent of Forskolin Control: Percent of Control Value,Human Primary Adipocytes,89.9%
same,Free Fatty Acid Levels in 3T3-L1 Adipocytes Expressed as a Percent of Forskolin Control: Percent of Control Value,3T3-L1 Adipocytes [2],50.2%
H-RWQEMGYIFYPRN-OH [compound 206],Free Fatty Acid Levels in 3T3-L1 Adipocytes Expressed as a Percent of Isoproterenol Control: Percent of Control Value,3T3-L1 Adipocytes [1],53.8%
same,Free Fatty Acid Levels in Human Primary Adipocytes Expressed as a Percent of Forskolin Control: Percent of Control Value,Human Primary Adipocytes,100%
same,Free Fatty Acid Levels in 3T3-L1 Adipocytes Expressed as a Percent of Forskolin Control: Percent of Control Value,3T3-L1 Adipocytes [2],50.6%
H-RWQEMGYIFYPRNLR-OH [compound 216],Free Fatty Acid Levels in 3T3-L1 Adipocytes Expressed as a Percent of Isoproterenol Control: Percent of Control Value,3T3-L1 Adipocytes [1],36.3%
same,Free Fatty Acid Levels in Human Primary Adipocytes Expressed as a Percent of Forskolin Control: Percent of Control Value,Human Primary Adipocytes,110%
same,Free Fatty Acid Levels in 3T3-L1 Adipocytes Expressed as a Percent of Forskolin Control: Percent of Control Value,3T3-L1 Adipocytes [2],50.1%
H-MRWQEMGYIFYPAKLR-OH [compound 18],Free Fatty Acid Levels in Human Primary Adipocytes Expressed as a Percent of Forskolin Control: Percent of Control Value,Human Primary Adipocytes,101%
same,Difference from Vehicle Control: Decrease from Baseline in Blood Glucose,[3],1.52 mg/dL
same,Difference from Vehicle Control: Decrease from Baseline in Body Weight (%),[3],−0.80%
same,Difference from Vehicle Control: Decrease from Baseline in Fat Mass,[3],-0.65 g
same,% Remaining at Each Time Point: 0 min,[4],100%
same,"remaining at 0.25 h, 100 uM",[4],30.8%
same,"remaining at 0.5 h, 100 uM",[4],24%
same,"remaining at 1 h, 100 uM",[4],19.4%
same,"remaining at 2 h, 100 uM",[4],9.02%
same,"remaining at 3 h, 100 uM",[4],4.53%
H-MRWQEMNYIFYPRALR-OH [compound 218],Free Fatty Acid Levels in 3T3-L1 Adipocytes Expressed as a Percent of Isoproterenol Control: Percent of Control Value,3T3-L1 Adipocytes [1],41.0%
same,Free Fatty Acid Levels in Human Primary Adipocytes Expressed as a Percent of Forskolin Control: Percent of Control Value,Human Primary Adipocytes,75.4%
same,Free Fatty Acid Levels in 3T3-L1 Adipocytes Expressed as a Percent of Forskolin Control: Percent of Control Value,3T3-L1 Adipocytes [2],43.6%
H-MRWQEMGYIFYPRN-OH [compound 203],Free Fatty Acid Levels in 3T3-L1 Adipocytes Expressed as a Percent of Isoproterenol Control: Percent of Control Value,3T3-L1 Adipocytes [1],52.9%
same,Free Fatty Acid Levels in Human Primary Adipocytes Expressed as a Percent of Forskolin Control: Percent of Control Value,Human Primary Adipocytes,75.2%
same,Free Fatty Acid Levels in 3T3-L1 Adipocytes Expressed as a Percent of Forskolin Control: Percent of Control Value,3T3-L1 Adipocytes [2],54.5%
H-MRWQEMGYIFYPRQ-OH [compound 204],Free Fatty Acid Levels in 3T3-L1 Adipocytes Expressed as a Percent of Isoproterenol Control: Percent of Control Value,3T3-L1 Adipocytes [1],38.8%
same,Free Fatty Acid Levels in Human Primary Adipocytes Expressed as a Percent of Forskolin Control: Percent of Control Value,Human Primary Adipocytes,94.3%
same,Free Fatty Acid Levels in 3T3-L1 Adipocytes Expressed as a Percent of Forskolin Control: Percent of Control Value,3T3-L1 Adipocytes [2],57.3%
H-MRWQEMGYIFYPRALR-OH [compound 19],Free Fatty Acid Levels in 3T3-L1 Adipocytes Expressed as a Percent of Isoproterenol Control: Percent of Control Value,3T3-L1 Adipocytes [1],66.0%
same,Free Fatty Acid Levels in Human Primary Adipocytes Expressed as a Percent of Forskolin Control: Percent of Control Value,Human Primary Adipocytes,113%
same,Difference from Vehicle Control: Decrease from Baseline in Blood Glucose,[3],-14.5 mg/dL
same,Difference from Vehicle Control: Decrease from Baseline in Body Weight (%),[3],−3.27%
same,Difference from Vehicle Control: Decrease from Baseline in Fat Mass,[3],-2.34 g
same,% Remaining at Each Time Point: 0 min,[4],100%
same,"remaining at 0.25 h, 100 uM",[4],18.8%
same,"remaining at 0.5 h, 100 uM",[4],18.2%
same,"remaining at 1 h, 100 uM",[4],8.52%
same,"remaining at 2 h, 100 uM",[4],1.82%
same,"remaining at 3 h, 100 uM",[4],0.22%
H-RWQEMGYIFYPRQ-OH [compound 207],Free Fatty Acid Levels in 3T3-L1 Adipocytes Expressed as a Percent of Isoproterenol Control: Percent of Control Value,3T3-L1 Adipocytes [1],44.6%
same,Free Fatty Acid Levels in Human Primary Adipocytes Expressed as a Percent of Forskolin Control: Percent of Control Value,Human Primary Adipocytes,108%
same,Free Fatty Acid Levels in 3T3-L1 Adipocytes Expressed as a Percent of Forskolin Control: Percent of Control Value,3T3-L1 Adipocytes [2],51.6%
